Laboratory results taken from paper PMC8776995 (Frontiers in Chemistry, 2022).
“And” between values parts separate entries of the source, which are not always exact repeats. Identical values can stand only once.

System: CCND1, CCNA2, CCNB1, CDK2, CDK6 RNA in PC-9 cells
Experiment: qPCR assay for cell cycle-related gene analysis
Assay type: cell-based, human
Conditions: for 2^ΔΔCт CCNB / 2^ΔΔCт CCND1 / 2^ΔΔCт CDK2 / 2^ΔΔCт CDK6: Repeat 1-3, relative to NC = 1; for RQ / RQ, CCNA / RQ, CCNB / RQ, CCND1 / RQ, CDK6 / RQ (CDK2): endogenous control b-Actin, reference sample NC; for CDK6 relative mRNA expression (fold of NC): qPCR, SYBR Green, normalised to beta-Actin, relative to NC = 1
From the text: To better understand the mechanisms underlying cell cycle arrest induced by e4 and e12 in NSCLC cells, we assessed the expression levels of a few genes involved in cell cycle regulation, including cyclin D1 (CCND1), cyclin A2 (CCNA2), cyclin B1 (CCNB1), cyclin-dependent kinase 2 (CDK2), and cyclin-dependent kinase 6 (CDK6) in PC-9 by qPCR. […] CCNA2 is known to bind and activate CDK2 and thus promotes the transition through G1/S and G2/M. CCNB1 and CCND1 are essential to mitosis and G1/S transition respectively. While G2/M arrest weas not detected, the changes in these gene expression profiles interpret the G1/S arrests in PC-9 cells treated with e4 and e12. PC-9 cells exposed to the compounds for various periods should be examined further.
Total RNA of cells was extracted and cDNA was synthesized. The primers for the target products were designed as in Table 3.

[1] = PC-9, 16 h, compared with DMSO control

## COCCOc1cc2ncnc(Nc3cccc(-c4cn(-c5ccc(C)cc5)nn4)c3)c2cc1OCCOC [e12, [6,7-Bis-(2-methoxy-ethoxy)-quinazolin-4-yl]-[3-(1-p-tolyl-1H-[1,2,3]triazol-4-yl)-phenyl]-amine]
4uM
  2^ΔΔCт CCNB: 0.9828 and 0.8732 and 1.03
  CDK6 relative mRNA expression (fold of NC): 0.9896
8uM
  2^ΔΔCт CCNB: 0.8452 and 0.8244 and 0.8431
  CDK6 relative mRNA expression (fold of NC): 0.9153
12uM
  2^ΔΔCт CCNB: 0.7825 and 0.7721 and 1.0421
  CDK6 relative mRNA expression (fold of NC): 0.9852
CCND1, 4uM
  2^ΔΔCт CCND1: 0.7886 and 0.963 and 1.159
CCND1, 8uM
  2^ΔΔCт CCND1: 0.7649 and 0.9528 and 0.8372
CCND1, 12uM
  2^ΔΔCт CCND1: 0.6173 and 0.9545 and 0.694
CCND1 mRNA, 4uM
  RQ: 1.159
CCND1 mRNA, 8uM
  RQ: 0.8372
CCND1 mRNA, 12uM
  RQ: 0.694
CDK2, 4uM
  2^ΔΔCт CDK2: 0.9262 and 1.002 and 1.127
CDK2, 8uM
  2^ΔΔCт CDK2: 0.848 and 1.034 and 0.9665
CDK2, 12uM
  2^ΔΔCт CDK2: 0.7751 and 1.0315 and 0.9502
CDK2 mRNA, 4uM
  RQ: 1.127
CDK2 mRNA, 8uM
  RQ: 0.9665
CDK2 mRNA, 12uM
  RQ: 0.9502
CDK6, 4uM
  2^ΔΔCт CDK6: 0.5928 and 0.8604 and 0.9896
CDK6, 8uM
  2^ΔΔCт CDK6: 0.8101 and 1.1509 and 0.9153
CDK6, 8uM, normalized to WT (NC), run 20201020-2
  2^ΔΔCт: 0.9153
CDK6, 12uM
  2^ΔΔCт CDK6: 0.676 and 1.27 and 0.9852
CDK6 mRNA, 4uM
  RQ: 0.9896
CDK6 mRNA, 8uM
  RQ: 0.9153
CDK6 mRNA, 12uM
  RQ: 0.9852
[1]
  RNA level of CCNA2: significantly decreased
  RNA level of CCNB1: significantly decreased
qPCR SYBR Green, CCNA mRNA, 4uM
  RQ, CCNA: 0.6447
qPCR SYBR Green, CCNA mRNA, 8uM
  RQ, CCNA: 0.5272
qPCR SYBR Green, CCNA mRNA, 12uM
  RQ, CCNA: 0.5472
qPCR SYBR Green, CCNB mRNA, 4uM
  RQ, CCNB: 1.09
qPCR SYBR Green, CCNB mRNA, 8uM
  RQ, CCNB: 1.029
qPCR SYBR Green, CCNB mRNA, 12uM
  RQ, CCNB: 0.964
qPCR SYBR Green, CCND1 mRNA, 4uM
  RQ, CCND1: 0.963
qPCR SYBR Green, CCND1 mRNA, 8uM
  RQ, CCND1: 0.9528
qPCR SYBR Green, CCND1 mRNA, 12uM
  RQ, CCND1: 0.9545
qPCR SYBR Green, CDK6 mRNA, 4uM
  RQ, CDK6: 0.8604
qPCR SYBR Green, CDK6 mRNA, 8uM
  RQ, CDK6: 1.1509
qPCR SYBR Green, CDK6 mRNA, 12uM
  RQ, CDK6: 1.27
Target CCNA, 4uM
  RQ, CCNA: 0.5435
Target CCNA, 8uM
  RQ, CCNA: 0.582
Target CCNA, 12uM
  RQ, CCNA: 0.5914
Target CCNB, 4uM
  RQ, CCNB: 0.9828
Target CCNB, 8uM
  RQ, CCNB: 0.8452
Target CCNB, 12uM
  RQ, CCNB: 0.7825
Target CCND1, 4uM
  RQ, CCND1: 0.7886
Target CCND1, 8uM
  RQ, CCND1: 0.7649
Target CCND1, 12uM
  RQ, CCND1: 0.6173
Target CDK2, 4uM
  RQ (CDK2): 0.9262
Target CDK2, 8uM
  RQ (CDK2): 0.848
Target CDK2, 12uM
  RQ (CDK2): 0.7751
Target CDK6, 4uM
  RQ, CDK6: 0.5928
Target CDK6, 8uM
  RQ, CDK6: 0.8101
Target CDK6, 12uM
  RQ, CDK6: 0.676
